Assay results: patent publication US10882857B2, “Bicyclic compounds as ATX inhibitors” (Hoffmann-La Roche Inc., priority 2017, dated 2021)
pIC50: −log10 of the molar value.

biological target: ATX (human His-tagged) (Homo sapiens (Human), UniProt Q13822); experiment: Human ATX enzyme inhibition assay (fluorescence quenching, MR121 substrate); type: biochemical; details: 30 nM ATX, 1 μM MR121 substrate, 30° C.
Experimental: Human ATX Enzyme Inhibition Assay
ATX inhibition was measured by a fluorescence quenching assay using a specifically labeled substrate analogue (MR121 substrate). To obtain this MR121 substrate, BOC and TBS protected 6-amino-hexanoic acid (R)-3-({2-[3-(2-{2-[2-(2-amino-ethoxy)-ethoxy]-ethoxy-}ethoxy)-propionylamino]-ethoxy}-hydroxy-phosphoryloxy)-2-hydroxy-propyl ester (Ferguson et al., Org Lett 2006, 8 (10), 2023) was labeled with MR121 fluorophore (CAS 185308-24-1, 1-(3-carboxypropyl)-11-ethyl-1,2,3,4,8,9,10,11-octahydro-dipyrido[3,2-b:2′,3′-i]phenoxazin-13-ium) on the free amine of the ethanolamine side and then, after deprotection, subsequently with tryptophan on the side of the aminohexanoic acid.
Assay working solutions were made as follows:
Assay buffer (50 mM Tris-HCl, 140 mM NaCl, 5 mM KCl, 1 mM CaCl2, 1 mM MgCl2, 0.01% Triton-X-100, pH 8.0;
ATX solution: ATX (human His-tagged) stock solution (1.08 mg/mL in 20 mM bicine, pH 8.5, 0.15 M NaCl, 10% glycerol, 0.3% CHAPS, 0.02% NaN3), diluted to 1.4-2.5× final concentration in assay buffer;
MR121 substrate solution: MR121 substrate stock solution (800 μM MR121 substrate in DMSO), diluted to 2-5× final concentration in assay buffer.
Test compounds (10 mM stock in DMSO, 8 μL) were obtained in 384 well sample plates (Corning Costar #3655) and diluted with 8 μL DMSO. Row-wise serial dilutions were made by transferring 8 μL cpd solution to the next row up to row O. The compound and control solutions were mixed five times and 2 μL were transferred to 384 well assay plates (Corning Costar #3702). Then, 15 μL of 41.7 nM ATX solution was added (30 nM final concentration), mixed five times and then incubated for 15 minutes at 30° C. 10 μL of MR121 substrate solution was added (1 μM final concentration), mixed 30 times and then incubated for 15 minutes at 30° C.
Fluorescence was then measured every 2 minutes for 1 hour (Perkin Elmer plate: vision multimode reader); light intensity: 2.5%; exp. time: 1.4 sec, Filter: Fluo_630/690 nm) and IC50 values were calculated from these readouts.

SMILES | pIC50
CC(C)(C)C(=O)Nc1cc(C#N)c(Cl)cc1COC(=O)N1Cc2nc(C(=O)N3CCc4c(O)noc4C3)oc2C1 [Example 4.01, [5-chloro-4-cyano-2-(2,2-dimethylpropanoylamino)phenyl]methyl 2-(3-hydroxy-5,7-dihydro-4H-[1,2]oxazolo[5,4-c]pyridine-6-carbonyl)-4,6-dihydropyrrolo[3,4-d][1,3]oxazole-5-carboxylate] | 8.15
CC(C)(C)C(=O)Nc1cc(C(F)(F)F)cnc1COC(=O)N1Cc2cc(C(=O)N3CCC(S(N)(=O)=O)CC3)sc2C1 [Example 4.02, [3-(2,2-Dimethylpropanoylamino)-5-(trifluoromethyl)pyridin-2-yl]methyl 2-(4-sulfamoylpiperidine-1-carbonyl)-4,6-dihydrothieno[2,3-c]pyrrole-5-carboxylate] | 9.00
CC(C)(C)C(=O)Nc1cc(C(F)(F)F)cnc1COC(=O)N1Cc2nc(C(=O)N3CCc4[nH]nnc4C3)oc2C1 [Example 4, [3-(2,2-Dimethylpropanoylamino)-5-(trifluoromethyl)pyridin-2-yl]methyl 2-(1,4,6,7-tetrahydrotriazolo[4,5-c]pyridine-5-carbonyl)-4,6-dihydropyrrolo[3,4-d][1,3]oxazole-5-carboxylate] | 9.00
O=C(c1cc(OCC2CCOCC2)nc(C2CC2)c1)N1Cc2ccc(C(=O)N3CCc4c(O)noc4C3)cc2C1 [Example 2, [2-[2-Cyclopropyl-6-(oxan-4-ylmethoxy)pyridine-4-carbonyl]-1,3-dihydroisoindol-5-yl]-(3-hydroxy-5,7-dihydro-4H-[1,2]oxazolo[5,4-c]pyridin-6-yl)methanone] | 7.62
NS(=O)(=O)C1CCN(C(=O)c2nc3c(s2)CN(C(=O)c2cc(OCC4CCOCC4)nc(C4CC4)c2)C3)CC1 [Example 3.01, 1-[5-[2-cyclopropyl-6-(oxan-4-ylmethoxy)pyridine-4-carbonyl]-4,6-dihydropyrrolo[3,4-d][1,3]thiazole-2-carbonyl]piperidine-4-sulfonamide] | 8.70
CC(C)(C)C(=O)Nc1cc(C(F)(F)F)cnc1COC(=O)N1Cc2ccc(C(=O)N3CCc4c(O)noc4C3)cc2C1 [Example 2.04, [3-(2,2-dimethylpropanoylamino)-5-(trifluoromethyl)pyridin-2-yl]methyl 5-(3-hydroxy-5,7-dihydro-4H-[1,2]oxazolo[5,4-c]pyridine-6-carbonyl)-1,3-dihydroisoindole-2-carboxylate] | 8.15
O=C(c1cc(OCC2CCOCC2)nc(C2CC2)c1)N1Cc2nc(C(=O)N3CCc4c(O)noc4C3)oc2C1 [Example 3, [2-Cyclopropyl-6-(oxan-4-ylmethoxy)pyridin-4-yl]-[2-(3-hydroxy-5,7-dihydro-4H-[1,2]oxazolo[5,4-c]pyridine-6-carbonyl)-4,6-dihydropyrrolo[3,4-d][1,3]oxazol-5-yl]methanone] | 8.30
CC(C)(C)C(=O)Nc1cc(C(F)(F)F)cnc1COC(=O)N1Cc2ccc(C(=O)N3CCc4onc(O)c4C3)cc2C1 [Example 2.05, [3-(2,2-dimethylpropanoylamino)-5-(trifluoromethyl)pyridin-2-yl]methyl 5-(3-hydroxy-6,7-dihydro-4H-[1,2]oxazolo[4,5-c]pyridine-5-carbonyl)-1,3-dihydroisoindole-2-carboxylate] | 8.40
CC(C)(C)C(=O)Nc1cc(C(F)(F)F)cnc1COC(=O)N1Cc2nc(C(=O)N3CCC(S(N)(=O)=O)CC3)oc2C1 [Example 2.06, [3-(2,2-dimethylpropanoylamino)-5-(trifluoromethyl)pyridin-2-yl]methyl 2-(4-sulfamoylpiperidine-1-carbonyl)-4,6-dihydropyrrolo[3,4-d][1,3]oxazole-5-carboxylate] | 9.00
CC(C)(C)C(=O)Nc1cc(C(F)(F)F)cnc1COC(=O)N1Cc2ccc(C(=O)N3CCC(S(N)(=O)=O)CC3)cc2C1 [Example 2.03, [3-(2,2-dimethylpropanoylamino)-5-(trifluoromethyl)pyridin-2-yl]methyl 5-(4-sulfamoylpiperidine-1-carbonyl)-1,3-dihydroisoindole-2-carboxylate] | 8.15

More lines, now with the values ahead:

pIC50 | SMILES
8.00 | NS(=O)(=O)C1CCN(C(=O)c2ccc3c(c2)CN(C(=O)c2cc(OCC4CCOCC4)nc(C4CC4)c2)C3)CC1 [Example 2.01, 1-[2-[2-cyclopropyl-6-(oxan-4-ylmethoxy)pyridine-4-carbonyl]-1,3-dihydroisoindole-5-carbonyl]piperidine-4-sulfonamide]
8.15 | O=C(c1cc(OCC2CCOCC2)nc(C2CC2)c1)N1Cc2ccc(C(=O)N3CCc4onc(O)c4C3)cc2C1 [Example 2.02, [2-[2-cyclopropyl-6-(oxan-4-ylmethoxy)pyridine-4-carbonyl]-1,3-dihydroisoindol-5-yl]-(3-hydroxy-6,7-dihydro-4H-[1,2]oxazolo[4,5-c]pyridin-5-yl)methanone]
8.70 | O=C(c1cc(OCC2CCOCC2)nc(C2CC2)c1)N1CCc2cc(C(=O)N3CCc4[nH]nnc4C3)ccc2C1 [Example 1, [2-[2-Cyclopropyl-6-(oxan-4-ylmethoxy)pyridine-4-carbonyl]-3,4-dihydro-1H-isoquinolin-6-yl]-(1,4,6,7-tetrahydrotriazolo[4,5-c]pyridin-5-yl)methanone]
8.70 | O=C(c1cc(OCC2CCOCC2)nc(C2CC2)c1)N1Cc2nc(C(=O)N3CCc4[nH]nnc4C3)oc2C1 [Example 1.01, [2-cyclopropyl-6-(oxan-4-ylmethoxy)pyridin-4-yl]-[2-(1,4,6,7-tetrahydrotriazolo[4,5-c]pyridine-5-carbonyl)-4,6-dihydropyrrolo[3,4-d][1,3]oxazol-5-yl]methanone]
8.15 | NS(=O)(=O)C1CCN(C(=O)c2cc3c(s2)CN(C(=O)c2cc(OCC4CCOCC4)nc(C4CC4)c2)C3)CC1 [Example 3.02, 1-[5-[2-cyclopropyl-6-(oxan-4-ylmethoxy)pyridine-4-carbonyl]-4,6-dihydrothieno[2,3-c]pyrrole-2-carbonyl]piperidine-4-sulfonamide]
